Source: patent US10954269B2, “Anti-inflammatory tripeptides” (Dr. August Wolff Gmbh & Co. KG Arzneimittel, priority 2013, dated 2021)

What was measured:
Conditions in all cases: substance 10^−9M
[1] = test system: primary murine T-cells; assay: Cytokine secretion on protein level in activated primary murine T-cells (13-plex FACS / Luminex, supernatant); assay type: cell-based, C57BL/6 mice
Outline: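 T-cells from secondary lymphatic organs of naïve C57BL/6 mice, stimulated with PMA/Ionomycin or IFN-γ; supernatant cytokines measured by 13-plex FACS 48 h and 72 h after stimulation. In another run, PMA/Ionomycin-stimulated cells received compounds at 10^−7, 10^−9 and 10^−11 M, with IFN-γ, IL-17 and IL-10 measured by Luminex.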

[2] = test system: human keratinocyte cell line (HaCaT); assay: Cytokine secretion on protein level in activated human keratinocyte cell line HaCaT (13-plex FACS / Luminex, supernatant); assay type: cell-based
Outline: (§1)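 Stimulus: PMA/Ionomycin or IFN-γ, 48 h; cells: HaCaT or human peripheral-blood T-cells; tripeptide treatment; readout: supernatant cytokines via 13-plex FACS or Luminex, 48–72 h post-stimulation.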

[3] = test system: primary human T-cells; assay: Cytokine secretion on protein level in activated primary human T-cells (13-plex FACS / Luminex, supernatant); assay type: cell-based
Outline: as §1

[4] = primary murine T-cells stimulated with IFN-γ
[5] = primary murine T-cells stimulated with PBS
[6] = primary murine T-cells stimulated with PMA/Ionomycin
[7] = HaCaT stimulated with PMA/Ionomycin
[8] = primary human T-cells stimulated with IFN-γ
[9] = primary human T-cells stimulated with PBS
[10] = primary human T-cells stimulated with PMA/Ionomycin

With H-(L)-Om-(L)-Pro-Aib-OH [Example 11] the IL-1 cytokine concentration [1, 4] was 100.08 pg/mL, the IL-2 cytokine concentration [1, 4] was 208.9 pg/mL and the IL-4 cytokine concentration [1, 4] was 53.65 pg/mL. The IL-5 cytokine concentration [1, 4] was 531.87 pg/mL, the IL-6 cytokine concentration [1, 4] was 193.06 pg/mL and the IL-10 cytokine concentration [1, 4] was 1383.43 pg/mL. For the same substance, the IL-13 cytokine concentration [1, 4] was 0 pg/mL, the IL-17 cytokine concentration [1, 4] was 39.84 pg/mL and the IL-21 cytokine concentration [1, 4] was 263.02 pg/mL. For the same substance, the IL-22 cytokine concentration [1, 4] was 31.59 pg/mL, the IL-27 cytokine concentration [1, 4] was 42.99 pg/mL and the TNF-α cytokine concentration [1, 4] was 19.71 pg/mL. It also gave an IFN-γ cytokine concentration [1, 5] of 8321.6 pg/mL, an IL-1 cytokine concentration [1, 5] of 75.71 pg/mL and an IL-2 cytokine concentration [1, 5] of 204.62 pg/mL. For the same substance, the IL-4 cytokine concentration [1, 5] was 0 pg/mL, the IL-5 cytokine concentration [1, 5] was 459.03 pg/mL and the IL-6 cytokine concentration [1, 5] was 172.33 pg/mL. The IL-10 cytokine concentration [1, 5] was 905.76 pg/mL, the IL-13 cytokine concentration [1, 5] was 0 pg/mL and the IL-17 cytokine concentration [1, 5] was 0 pg/mL. For the same substance, the IL-21 cytokine concentration [1, 5] was 0 pg/mL, the IL-22 cytokine concentration [1, 5] was 66.43 pg/mL and the IL-27 cytokine concentration [1, 5] was 141.82 pg/mL. For the same substance, the TNF-α cytokine concentration [1, 5] was 0 pg/mL, the IFN-γ cytokine concentration [1, 6] was 2756.75 pg/mL and the IL-1 cytokine concentration [1, 6] was 178.78 pg/mL. It also gave an IL-2 cytokine concentration [1, 6] of 261.53 pg/mL, an IL-4 cytokine concentration [1, 6] of 117.11 pg/mL and an IL-5 cytokine concentration [1, 6] of 513.39 pg/mL. For the same substance, the IL-6 cytokine concentration [1, 6] was 333.86 pg/mL, the IL-10 cytokine concentration [1, 6] was 1302.16 pg/mL and the IL-13 cytokine concentration [1, 6] was 0 pg/mL. It also gave an IL-17 cytokine concentration [1, 6] of 244.88 pg/mL, an IL-21 cytokine concentration [1, 6] of 0 pg/mL and an IL-22 cytokine concentration [1, 6] of 94.31 pg/mL. The IL-27 cytokine concentration [1, 6] was 99.05 pg/mL, the TNF-α cytokine concentration [1, 6] was 86.61 pg/mL and the IL-1 cytokine concentration ([2]; HaCaT stimulated with IFN-γ) was 31.54 pg/mL. The IL-2 cytokine concentration ([2]; HaCaT stimulated with IFN-γ) was 0 pg/mL, the IL-4 cytokine concentration ([2]; HaCaT stimulated with IFN-γ) was 0 pg/mL and the IL-5 cytokine concentration ([2]; HaCaT stimulated with IFN-γ) was 0 pg/mL. For the same substance, the IL-6 cytokine concentration ([2]; HaCaT stimulated with IFN-γ) was 265.29 pg/mL, the IL-9 cytokine concentration ([2]; HaCaT stimulated with IFN-γ) was 0 pg/mL and the IL-10 cytokine concentration ([2]; HaCaT stimulated with IFN-γ) was 0 pg/mL. The IL-12p70 cytokine concentration ([2]; HaCaT stimulated with IFN-γ) was 0 pg/mL, the IL-13 cytokine concentration ([2]; HaCaT stimulated with IFN-γ) was 989.21 pg/mL and the IL-17 cytokine concentration ([2]; HaCaT stimulated with IFN-γ) was 0 pg/mL. It also gave an IL-22 cytokine concentration ([2]; HaCaT stimulated with IFN-γ) of 0 pg/mL, a TNF-α cytokine concentration ([2]; HaCaT stimulated with IFN-γ) of 0 pg/mL and an IFN-γ cytokine concentration ([2]; HaCaT stimulated with PBS) of 0 pg/mL. The IL-1 cytokine concentration ([2]; HaCaT stimulated with PBS) was 0 pg/mL, the IL-2 cytokine concentration ([2]; HaCaT stimulated with PBS) was 0 pg/mL and the IL-4 cytokine concentration ([2]; HaCaT stimulated with PBS) was 99.64 pg/mL. The IL-5 cytokine concentration ([2]; HaCaT stimulated with PBS) was 0 pg/mL, the IL-6 cytokine concentration ([2]; HaCaT stimulated with PBS) was 42.94 pg/mL and the IL-9 cytokine concentration ([2]; HaCaT stimulated with PBS) was 1.97 pg/mL. For the same substance, the IL-10 cytokine concentration ([2]; HaCaT stimulated with PBS) was 43.56 pg/mL, the IL-12p70 cytokine concentration ([2]; HaCaT stimulated with PBS) was 0 pg/mL and the IL-13 cytokine concentration ([2]; HaCaT stimulated with PBS) was 0 pg/mL. It also gave an IL-17 cytokine concentration ([2]; HaCaT stimulated with PBS) of 0 pg/mL, an IL-22 cytokine concentration ([2]; HaCaT stimulated with PBS) of 0 pg/mL and a TNF-α cytokine concentration ([2]; HaCaT stimulated with PBS) of 0 pg/mL. For the same substance, the IFN-γ cytokine concentration [2, 7] was 57.58 pg/mL, the IL-1 cytokine concentration [2, 7] was 0 pg/mL and the IL-2 cytokine concentration [2, 7] was 19.32 pg/mL. For the same substance, the IL-4 cytokine concentration [2, 7] was 0 pg/mL, the IL-5 cytokine concentration [2, 7] was 0 pg/mL and the IL-6 cytokine concentration [2, 7] was 207.76 pg/mL. For the same substance, the IL-9 cytokine concentration [2, 7] was 0 pg/mL, the IL-10 cytokine concentration [2, 7] was 87.41 pg/mL and the IL-12p70 cytokine concentration [2, 7] was 0 pg/mL. It also gave an IL-13 cytokine concentration [2, 7] of 0 pg/mL, an IL-17 cytokine concentration [2, 7] of 0 pg/mL and an IL-22 cytokine concentration [2, 7] of 0 pg/mL. For the same substance, the TNF-α cytokine concentration [2, 7] was 0 pg/mL, the IL-1 cytokine concentration [3, 8] was 0 pg/mL and the IL-2 cytokine concentration [3, 8] was 212.98 pg/mL. It also gave an IL-4 cytokine concentration [3, 8] of 0 pg/mL, an IL-5 cytokine concentration [3, 8] of 83.3 pg/mL and an IL-6 cytokine concentration [3, 8] of 108.08 pg/mL. It also gave an IL-9 cytokine concentration [3, 8] of 8.15 pg/mL, an IL-10 cytokine concentration [3, 8] of 50.11 pg/mL and an IL-12p70 cytokine concentration [3, 8] of 0 pg/mL. It also gave an IL-13 cytokine concentration [3, 8] of 180.41 pg/mL, an IL-17 cytokine concentration [3, 8] of 0 pg/mL and an IL-22 cytokine concentration [3, 8] of 0 pg/mL. The TNF-α cytokine concentration [3, 8] was 52.55 pg/mL, the IL-1 cytokine concentration [3, 9] was 0 pg/mL and the IL-2 cytokine concentration [3, 9] was 0 pg/mL. The IL-4 cytokine concentration [3, 9] was 121.69 pg/mL, the IL-5 cytokine concentration [3, 9] was 0 pg/mL and the IL-6 cytokine concentration [3, 9] was 172.14 pg/mL. It also gave an IL-9 cytokine concentration [3, 9] of 10.84 pg/mL, an IL-10 cytokine concentration [3, 9] of 0 pg/mL and an IL-12p70 cytokine concentration [3, 9] of 0 pg/mL. The IL-13 cytokine concentration [3, 9] was 187.86 pg/mL, the IL-17 cytokine concentration [3, 9] was 0 pg/mL and the IL-22 cytokine concentration [3, 9] was 0 pg/mL. For the same substance, the INF-α cytokine concentration [3, 9] was 505.68 pg/mL, the TNF-α cytokine concentration [3, 9] was 52.55 pg/mL and the IL-1 cytokine concentration [3, 10] was 677.32 pg/mL. For the same substance, the IL-2 cytokine concentration [3, 10] was 3920.52 pg/mL, the IL-4 cytokine concentration [3, 10] was 112.94 pg/mL and the IL-5 cytokine concentration [3, 10] was 525.15 pg/mL. The IL-6 cytokine concentration [3, 10] was 1474.06 pg/mL, the IL-9 cytokine concentration [3, 10] was 380.3 pg/mL and the IL-10 cytokine concentration [3, 10] was 563.89 pg/mL. The IL-12p70 cytokine concentration [3, 10] was 0 pg/mL, the IL-13 cytokine concentration [3, 10] was 1258.74 pg/mL and the IL-17 cytokine concentration [3, 10] was 3306.09 pg/mL. It also gave an IL-22 cytokine concentration [3, 10] of 0 pg/mL, an INF-α cytokine concentration [3, 10] of 9554.27 pg/mL and a TNF-α cytokine concentration [3, 10] of 2209.22 pg/mL.
